Data on 13 compounds can be found in patent US20120245137A1 (Zalicus Pharmaceuticals Ltd., priority 2009, published 2012).

Holding throughout (type): cell-based
Experiment [1] deals with T-type calcium channel (Homo sapiens, UniProt O43497). The experiment is described as follows: T-type channel blocking, FLIPR data (Table 6). As to conditions: CAv3.1. From the text: (§1) Another method, high-throughput spectrophotometric assay, utilizes loading of the cell lines with a fluorescent dye sensitive to intracellular calcium concentration and subsequent examination of the effects of compounds on the ability of depolarization by potassium chloride or other means to alter intracellular calcium levels.
T-type calcium channel (Homo sapiens, UniProt O43497), sequence (O43497 whole entry): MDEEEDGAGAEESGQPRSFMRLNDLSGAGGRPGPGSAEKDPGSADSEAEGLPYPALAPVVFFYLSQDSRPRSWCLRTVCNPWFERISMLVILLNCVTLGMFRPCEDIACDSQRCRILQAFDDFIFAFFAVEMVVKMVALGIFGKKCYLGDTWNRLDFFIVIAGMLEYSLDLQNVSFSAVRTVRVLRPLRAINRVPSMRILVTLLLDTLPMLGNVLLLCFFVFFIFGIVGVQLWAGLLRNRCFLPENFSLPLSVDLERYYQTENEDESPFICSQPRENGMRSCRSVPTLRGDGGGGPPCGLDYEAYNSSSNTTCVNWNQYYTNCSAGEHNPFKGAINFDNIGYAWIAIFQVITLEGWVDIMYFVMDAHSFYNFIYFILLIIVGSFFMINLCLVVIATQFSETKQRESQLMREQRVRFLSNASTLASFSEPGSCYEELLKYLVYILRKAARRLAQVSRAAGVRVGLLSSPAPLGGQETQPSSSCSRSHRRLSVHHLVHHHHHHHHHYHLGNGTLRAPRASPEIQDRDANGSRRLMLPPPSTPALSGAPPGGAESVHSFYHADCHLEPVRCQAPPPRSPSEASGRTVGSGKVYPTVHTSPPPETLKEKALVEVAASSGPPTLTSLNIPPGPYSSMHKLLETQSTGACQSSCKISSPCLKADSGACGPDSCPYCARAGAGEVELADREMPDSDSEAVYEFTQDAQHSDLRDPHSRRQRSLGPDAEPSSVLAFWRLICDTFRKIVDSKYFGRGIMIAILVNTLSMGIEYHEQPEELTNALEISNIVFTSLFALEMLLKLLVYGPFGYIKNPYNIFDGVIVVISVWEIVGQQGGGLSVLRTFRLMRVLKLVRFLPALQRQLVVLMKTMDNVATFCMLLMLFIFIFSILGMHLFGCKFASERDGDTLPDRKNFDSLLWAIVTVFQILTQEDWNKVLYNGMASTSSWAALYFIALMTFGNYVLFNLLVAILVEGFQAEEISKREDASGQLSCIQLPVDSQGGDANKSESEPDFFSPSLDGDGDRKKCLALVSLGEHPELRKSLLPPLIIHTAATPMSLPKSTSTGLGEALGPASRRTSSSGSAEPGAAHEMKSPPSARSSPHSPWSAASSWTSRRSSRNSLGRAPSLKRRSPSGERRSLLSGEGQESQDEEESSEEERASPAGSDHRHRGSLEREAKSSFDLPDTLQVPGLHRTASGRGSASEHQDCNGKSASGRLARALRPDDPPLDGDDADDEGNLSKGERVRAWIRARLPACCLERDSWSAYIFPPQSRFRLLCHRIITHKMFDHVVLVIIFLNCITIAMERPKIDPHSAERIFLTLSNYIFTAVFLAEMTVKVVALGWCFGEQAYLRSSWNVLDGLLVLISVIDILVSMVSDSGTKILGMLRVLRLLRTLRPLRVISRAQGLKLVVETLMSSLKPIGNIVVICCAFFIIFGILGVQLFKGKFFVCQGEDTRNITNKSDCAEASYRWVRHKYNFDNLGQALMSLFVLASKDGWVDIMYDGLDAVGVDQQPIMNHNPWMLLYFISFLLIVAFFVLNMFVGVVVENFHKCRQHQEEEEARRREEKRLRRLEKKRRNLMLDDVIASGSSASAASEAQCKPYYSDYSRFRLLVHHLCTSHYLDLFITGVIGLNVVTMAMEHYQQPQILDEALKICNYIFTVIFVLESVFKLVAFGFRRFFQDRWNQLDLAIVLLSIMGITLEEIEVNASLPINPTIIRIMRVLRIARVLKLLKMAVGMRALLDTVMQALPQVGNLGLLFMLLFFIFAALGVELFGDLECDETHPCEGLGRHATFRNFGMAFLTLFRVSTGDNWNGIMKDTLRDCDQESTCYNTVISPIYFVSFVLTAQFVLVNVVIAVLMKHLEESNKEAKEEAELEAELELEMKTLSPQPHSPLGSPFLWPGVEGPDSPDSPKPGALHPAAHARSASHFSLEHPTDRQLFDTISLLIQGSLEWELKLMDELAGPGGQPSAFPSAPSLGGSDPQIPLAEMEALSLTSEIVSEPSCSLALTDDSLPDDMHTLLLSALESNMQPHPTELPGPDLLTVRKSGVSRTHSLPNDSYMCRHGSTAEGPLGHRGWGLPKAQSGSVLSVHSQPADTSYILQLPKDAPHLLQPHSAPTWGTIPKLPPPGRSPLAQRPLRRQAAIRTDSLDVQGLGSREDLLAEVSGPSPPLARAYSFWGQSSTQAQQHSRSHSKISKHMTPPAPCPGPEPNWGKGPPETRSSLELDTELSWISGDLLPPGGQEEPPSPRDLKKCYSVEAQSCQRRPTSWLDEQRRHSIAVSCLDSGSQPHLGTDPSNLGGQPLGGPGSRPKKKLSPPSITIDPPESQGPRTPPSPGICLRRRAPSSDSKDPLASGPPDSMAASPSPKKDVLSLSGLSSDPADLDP

Experiment [2] addresses T-type calcium channel (Homo sapiens, UniProt O95180). The experiment can be described thus: T-type channel blocking, FLIPR data (Table 6). The following applies: for CAv3.2 IC50 Ratio closed/inact.: CAv3.2, ratio closed/inactivated IC50.
Source text: as §1

A further experiment has as its target CAv1.2 (Homo sapiens, UniProt Q13936). The experiment is described as follows: FLIPR data, CAv1.2 channel blocking (Table 6). The following applies: for CAv1.2 IC50 Ratio closed/inact.: ratio closed/inactivated IC50.
In another experiment the target is Human Cav 2.2 channels (Homo sapiens, UniProt Q00975). The experiment can be described thus: Fluorescent assay for CaV2.2 channels using potassium depolarization (VIPR/FLIPR). As to conditions: FLIPR data; for CAv2.2 IC50 Ratio closed/inact.: ratio closed/inactivated IC50. The method in brief:
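Fluo-4 calcium fluorescence (480/535 nm) was recorded on VIPR or FLIPR after depolarization to 70 mM final potassium. Before this, cells were preincubated 30 min at 25 °C with compound in 4–30 mM potassium, so that state-dependent block could be assessed; the cells were HEK293 coexpressing Cav2.2, α2δ, β and Kir2.3.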

The mark [3] stands for this setting: CAv3.2, closed state, read-out: CAv3.2 IC50 Closed.
The mark [4] stands for this setting: CAv3.2, inactivated state, read-out: CAv3.2 IC50 Inact.
The mark [5] stands for this setting: closed state, read-out: CAv1.2 IC50 Closed.
The mark [6] stands for this setting: inactivated state, read-out: CAv1.2 IC50 Inact.
[7] abbreviates: closed state, read-out: CAv2.2 IC50 Closed.
Where [8] appears, read: inactivated state, read-out: CAv2.2 IC50 Inact.

Read-outs that look alike come from different tables or passages of the source.

T-type calcium channel (Homo sapiens, UniProt O95180), sequence (O95180 whole entry): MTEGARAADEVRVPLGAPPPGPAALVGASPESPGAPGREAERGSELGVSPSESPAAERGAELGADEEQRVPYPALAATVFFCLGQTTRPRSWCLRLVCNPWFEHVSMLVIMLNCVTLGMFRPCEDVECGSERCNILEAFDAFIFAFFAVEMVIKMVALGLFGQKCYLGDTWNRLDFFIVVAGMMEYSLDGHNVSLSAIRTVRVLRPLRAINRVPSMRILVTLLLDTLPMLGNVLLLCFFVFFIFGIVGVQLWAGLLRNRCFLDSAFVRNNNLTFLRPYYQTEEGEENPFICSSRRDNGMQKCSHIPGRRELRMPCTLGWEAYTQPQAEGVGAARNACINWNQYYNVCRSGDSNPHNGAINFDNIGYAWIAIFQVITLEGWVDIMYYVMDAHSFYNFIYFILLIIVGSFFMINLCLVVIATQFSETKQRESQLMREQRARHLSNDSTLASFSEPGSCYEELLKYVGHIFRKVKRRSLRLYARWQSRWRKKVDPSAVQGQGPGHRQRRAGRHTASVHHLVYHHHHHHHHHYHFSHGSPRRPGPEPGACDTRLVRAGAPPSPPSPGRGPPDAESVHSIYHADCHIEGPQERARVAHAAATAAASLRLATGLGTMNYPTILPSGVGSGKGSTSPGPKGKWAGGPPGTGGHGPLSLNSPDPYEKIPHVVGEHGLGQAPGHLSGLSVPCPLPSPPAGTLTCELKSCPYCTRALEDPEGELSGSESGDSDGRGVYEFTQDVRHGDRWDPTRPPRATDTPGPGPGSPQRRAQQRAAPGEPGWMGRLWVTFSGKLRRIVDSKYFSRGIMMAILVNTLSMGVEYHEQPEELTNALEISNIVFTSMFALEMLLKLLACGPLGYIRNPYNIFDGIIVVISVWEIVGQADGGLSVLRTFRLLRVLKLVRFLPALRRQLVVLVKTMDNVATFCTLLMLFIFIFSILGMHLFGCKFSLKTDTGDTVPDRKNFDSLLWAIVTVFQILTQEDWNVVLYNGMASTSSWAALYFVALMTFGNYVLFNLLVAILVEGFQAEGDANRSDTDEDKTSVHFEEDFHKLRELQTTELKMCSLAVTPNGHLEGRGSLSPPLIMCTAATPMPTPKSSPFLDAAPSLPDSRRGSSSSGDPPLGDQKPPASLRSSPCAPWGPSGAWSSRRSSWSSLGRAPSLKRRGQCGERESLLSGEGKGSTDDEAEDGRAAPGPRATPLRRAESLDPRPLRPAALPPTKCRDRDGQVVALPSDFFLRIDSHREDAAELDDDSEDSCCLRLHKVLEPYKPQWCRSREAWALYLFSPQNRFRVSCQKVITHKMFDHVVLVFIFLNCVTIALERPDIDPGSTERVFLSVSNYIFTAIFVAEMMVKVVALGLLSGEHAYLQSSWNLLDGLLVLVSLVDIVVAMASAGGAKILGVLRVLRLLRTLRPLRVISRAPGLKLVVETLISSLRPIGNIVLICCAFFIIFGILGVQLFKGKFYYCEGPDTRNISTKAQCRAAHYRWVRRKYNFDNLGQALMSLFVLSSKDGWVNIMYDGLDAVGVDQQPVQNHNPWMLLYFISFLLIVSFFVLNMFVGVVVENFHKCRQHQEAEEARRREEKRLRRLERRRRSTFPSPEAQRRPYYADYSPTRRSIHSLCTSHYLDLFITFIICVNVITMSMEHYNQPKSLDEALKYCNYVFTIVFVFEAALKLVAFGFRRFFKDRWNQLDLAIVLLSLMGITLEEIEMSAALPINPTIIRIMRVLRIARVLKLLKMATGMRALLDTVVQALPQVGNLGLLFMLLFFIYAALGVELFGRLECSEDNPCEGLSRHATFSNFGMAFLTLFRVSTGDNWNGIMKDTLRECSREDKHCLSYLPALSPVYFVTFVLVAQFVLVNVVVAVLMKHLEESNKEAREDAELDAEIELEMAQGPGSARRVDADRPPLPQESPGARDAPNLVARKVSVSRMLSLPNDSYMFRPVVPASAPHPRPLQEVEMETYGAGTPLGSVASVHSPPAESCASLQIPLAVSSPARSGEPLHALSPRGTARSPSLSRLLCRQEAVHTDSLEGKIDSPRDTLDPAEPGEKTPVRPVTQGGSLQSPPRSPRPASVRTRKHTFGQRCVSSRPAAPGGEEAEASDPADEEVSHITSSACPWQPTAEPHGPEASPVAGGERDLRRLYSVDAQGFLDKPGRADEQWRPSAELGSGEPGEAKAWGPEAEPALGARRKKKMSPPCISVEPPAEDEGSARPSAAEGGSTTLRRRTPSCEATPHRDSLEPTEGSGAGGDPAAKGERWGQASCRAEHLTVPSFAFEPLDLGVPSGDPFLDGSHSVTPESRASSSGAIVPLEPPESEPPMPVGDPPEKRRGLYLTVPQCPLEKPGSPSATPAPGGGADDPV

With `CC(C)(C[C@H]1C[C@@H](NC(=O)c2ccc(C(F)(F)F)nc2)C1)S(=O)(=O)c1cccc(C(F)(F)F)c1` [Compound 736], the IC50 at T-type calcium channel [1] is at least 10 µM; on T-type calcium channel [2] (setting [3]), 6.64 µM; on T-type calcium channel [2] (setting [4]), 2.73 µM; at CAv1.2 (setting [5]), at least 10 µM; on CAv1.2 (setting [6]), 3.32 µM; at Human Cav 2.2 channels (setting [7]), 2.2 µM. The IC50 at Human Cav 2.2 channels (setting [8]) was 0.13 µM. Further, the “CAv3.2 IC50 Ratio closed/inact.” value on T-type calcium channel [2] is given as 2.4. Moreover, the “CAv1.2 IC50 Ratio closed/inact.” value at CAv1.2 is reported as 3. Also, the “CAv2.2 IC50 Ratio closed/inact.” value on Human Cav 2.2 channels turned out to be 16.9.
`CC(C)([C@H]1C[C@@H](NC(=O)c2cnc(C(F)(F)F)nc2)C1)S(=O)(=O)c1cccc(C(F)(F)F)c1` [Compound 579]: the IC50 is at least 10 µM at T-type calcium channel [1]; at least 10 µM at T-type calcium channel [2] (setting [3]); 10 µM at T-type calcium channel [2] (setting [4]); at least 10 µM at CAv1.2 (setting [5]); 9.95 µM on CAv1.2 (setting [6]); 10 µM on Human Cav 2.2 channels (setting [7]). For the same compound, the IC50 at Human Cav 2.2 channels (setting [8]) is 0.66 µM. Also, the “CAv3.2 IC50 Ratio closed/inact.” value on T-type calcium channel [2] was 1. Further, the “CAv1.2 IC50 Ratio closed/inact.” value at CAv1.2 is on record as 1. Moreover, the “CAv2.2 IC50 Ratio closed/inact.” value at Human Cav 2.2 channels worked out at 15.2.
For the compound `CC(C)([C@H]1C[C@@H](CNC(=O)c2ccnc(C(F)(F)F)c2)C1)S(=O)(=O)c1cccc(C(F)(F)F)c1` [Compound 687], the IC50 on T-type calcium channel [1] is 2.61 µM; on T-type calcium channel [2] (setting [3]), 1.65 µM; on CAv1.2 (setting [5]), at least 10 µM; at CAv1.2 (setting [6]), 2.39 µM; on Human Cav 2.2 channels (setting [7]) it was 4.11 µM; at Human Cav 2.2 channels (setting [8]), 0.53 µM. Besides, the “CAv1.2 IC50 Ratio closed/inact.” value at CAv1.2 worked out at 4.2. The “CAv2.2 IC50 Ratio closed/inact.” value at Human Cav 2.2 channels stood at 7.8.
In the case of `CC(C)([C@H]1C[C@H](Nc2ccnc(C(F)(F)F)n2)C1)S(=O)(=O)c1cc(F)cc(C(F)(F)F)c1` [Compound 649], the IC50 on T-type calcium channel [1] turned out to be 3.13 µM; at T-type calcium channel [2] (setting [3]), 2.4 µM; at T-type calcium channel [2] (setting [4]), 2.74 µM; at CAv1.2 (setting [5]), 6.39 µM; at CAv1.2 (setting [6]) it was 1.81 µM; at Human Cav 2.2 channels (setting [7]), 4.83 µM. For the same compound, at Human Cav 2.2 channels (setting [8]), the IC50 turned out to be 1.19 µM. Also, the “CAv3.2 IC50 Ratio closed/inact.” value at T-type calcium channel [2] is 0.9. The “CAv1.2 IC50 Ratio closed/inact.” value on CAv1.2 was 3.5. The “CAv2.2 IC50 Ratio closed/inact.” value on Human Cav 2.2 channels was 4.1.
With `CC(C)S(=O)(=O)c1cc(C(F)(F)F)cnc1C(=O)N[C@H]1C[C@@H](CC(C)(C)S(=O)(=O)c2cccc(C(F)(F)F)c2)C1` [Compound 729], the IC50 on T-type calcium channel [1] is 8.24 µM; at T-type calcium channel [2] (setting [3]), 8.13 µM; at T-type calcium channel [2] (setting [4]), 6.78 µM; on CAv1.2 (setting [5]) it was at least 10 µM; on CAv1.2 (setting [6]), 9.3 µM; at Human Cav 2.2 channels (setting [7]), 6.9 µM. Further, on Human Cav 2.2 channels (setting [8]), the IC50 amounted to 0.15 µM. Moreover, at T-type calcium channel [2], the “CAv3.2 IC50 Ratio closed/inact.” value turned out to be 1.2. Further, the “CAv1.2 IC50 Ratio closed/inact.” value on CAv1.2 is recorded as 1.1. Further, on Human Cav 2.2 channels, the “CAv2.2 IC50 Ratio closed/inact.” value is 46.
With `CC(C)([C@H]1C[C@@H](CNC(=O)c2ccc(F)c(Cl)c2)C1)S(=O)(=O)c1cccc(C(F)(F)F)c1` [Compound 685], the IC50 worked out at 0.38 µM on T-type calcium channel [1]; 0.44 µM at T-type calcium channel [2] (setting [3]); 4.71 µM on CAv1.2 (setting [5]); 1.01 µM on CAv1.2 (setting [6]); 1.87 µM on Human Cav 2.2 channels (setting [7]); 0.18 µM at Human Cav 2.2 channels (setting [8]). On CAv1.2, the “CAv1.2 IC50 Ratio closed/inact.” value is on record as 4.7. Further, the “CAv2.2 IC50 Ratio closed/inact.” value at Human Cav 2.2 channels was found to be 10.4.
Turning to `CC(C)([C@H]1C[C@@H](NC(=O)c2ccc(Cl)c(F)c2)C1)S(=O)(=O)c1cccc(OC(F)(F)F)c1` [Compound 640], the IC50 at T-type calcium channel [1] stood at 1.26 µM; at T-type calcium channel [2] (setting [3]), 0.7 µM; at T-type calcium channel [2] (setting [4]), 0.92 µM; at CAv1.2 (setting [5]), 4.9 µM; at CAv1.2 (setting [6]), 1.43 µM; at Human Cav 2.2 channels (setting [7]), 2.49 µM. Also, the IC50 on Human Cav 2.2 channels (setting [8]) amounted to 0.4 µM. The “CAv3.2 IC50 Ratio closed/inact.” value on T-type calcium channel [2] is 0.8. At CAv1.2, the “CAv1.2 IC50 Ratio closed/inact.” value is listed as 3.4. For the same compound, the “CAv2.2 IC50 Ratio closed/inact.” value at Human Cav 2.2 channels stood at 6.2.
As to `CC(C)(C1CC(CNC(=O)c2cc(C(F)(F)F)n[nH]2)C1)S(=O)(=O)c1cccc(C(F)(F)F)c1` (stereo not shown) [Compound 682], the IC50 on T-type calcium channel [1] was at least 10 µM; at T-type calcium channel [2] (setting [3]), 2.31 µM; on CAv1.2 (setting [5]), at least 10 µM; on CAv1.2 (setting [6]), 2.16 µM; at Human Cav 2.2 channels (setting [7]), 6.64 µM; on Human Cav 2.2 channels (setting [8]), 0.53 µM. For the same compound, the “CAv1.2 IC50 Ratio closed/inact.” value at CAv1.2 is 4.6. At Human Cav 2.2 channels, the “CAv2.2 IC50 Ratio closed/inact.” value worked out at 12.5.
With `CC(C)(C[C@H]1C[C@@H](NC(=O)c2cnc(C(F)(F)F)nc2)C1)S(=O)(=O)c1cccc(C(F)(F)F)c1` [Compound 734], the IC50 on T-type calcium channel [1] is at least 10 µM; on T-type calcium channel [2] (setting [3]), 8.7 µM; on T-type calcium channel [2] (setting [4]) it was 2.27 µM; at CAv1.2 (setting [5]), at least 10 µM; at CAv1.2 (setting [6]) it was 5.67 µM; on Human Cav 2.2 channels (setting [7]), 3.39 µM. Also, the IC50 at Human Cav 2.2 channels (setting [8]) turned out to be 0.13 µM. In addition, the “CAv3.2 IC50 Ratio closed/inact.” value at T-type calcium channel [2] is reported as 3.8. For the same compound, the “CAv1.2 IC50 Ratio closed/inact.” value on CAv1.2 was found to be 1.8. Also, at Human Cav 2.2 channels, the “CAv2.2 IC50 Ratio closed/inact.” value is 26.1.
Consider `CC(C)S(=O)(=O)c1cc(C(F)(F)F)cnc1C(=O)N[C@H]1C[C@H](C(C)(C)S(=O)(=O)c2cccc(OC(F)(F)F)c2)C1` [Compound 638], for which the IC50 was 4.24 µM at T-type calcium channel [1]; 5.49 µM on T-type calcium channel [2] (setting [3]); 6.38 µM on T-type calcium channel [2] (setting [4]); at least 10 µM on CAv1.2 (setting [5]); 6.11 µM at CAv1.2 (setting [6]); 6.79 µM on Human Cav 2.2 channels (setting [7]). Besides, at Human Cav 2.2 channels (setting [8]), the IC50 was found to be 0.21 µM. In addition, the “CAv3.2 IC50 Ratio closed/inact.” value on T-type calcium channel [2] turned out to be 0.9. For the same compound, at CAv1.2, the “CAv1.2 IC50 Ratio closed/inact.” value is recorded as 1.6. Also, the “CAv2.2 IC50 Ratio closed/inact.” value at Human Cav 2.2 channels is reported as 32.3.
For the compound `CC(C)(C[C@H]1C[C@H](NC(=O)c2ccc(OCC(F)(F)F)nc2)C1)S(=O)(=O)c1cccc(C(F)(F)F)c1` [Compound 724], the IC50 at T-type calcium channel [1] was determined as 1.41 µM; at T-type calcium channel [2] (setting [3]), 2.24 µM; at T-type calcium channel [2] (setting [4]), 0.83 µM; on CAv1.2 (setting [5]) it was 5.23 µM; at CAv1.2 (setting [6]) it was 1.21 µM; at Human Cav 2.2 channels (setting [7]), 0.98 µM. Moreover, at Human Cav 2.2 channels (setting [8]), the IC50 turned out to be 0.09 µM. Besides, at T-type calcium channel [2], the “CAv3.2 IC50 Ratio closed/inact.” value amounted to 2.7. For the same compound, the “CAv1.2 IC50 Ratio closed/inact.” value at CAv1.2 is 4.3. Moreover, the “CAv2.2 IC50 Ratio closed/inact.” value on Human Cav 2.2 channels was 10.9.
On to `CC(C)([C@H]1C[C@H](NS(=O)(=O)c2ccc(C(F)(F)F)nc2)C1)S(=O)(=O)c1cccc(C(F)(F)F)c1` [Compound 668], for which the IC50 on T-type calcium channel [1] was 2.95 µM; at T-type calcium channel [2] (setting [3]), 3.83 µM; at T-type calcium channel [2] (setting [4]), 2.92 µM; at CAv1.2 (setting [5]), at least 10 µM; at CAv1.2 (setting [6]), 3.73 µM; on Human Cav 2.2 channels (setting [7]) it was 7.34 µM. The IC50 at Human Cav 2.2 channels (setting [8]) came out at 0.79 µM. Also, the “CAv3.2 IC50 Ratio closed/inact.” value at T-type calcium channel [2] came out at 1.3. Also, the “CAv1.2 IC50 Ratio closed/inact.” value on CAv1.2 was 2.7. At Human Cav 2.2 channels, the “CAv2.2 IC50 Ratio closed/inact.” value is listed as 9.3.
For the compound `CC(C)([C@H]1C[C@@H](NC(=O)c2ccc(C(F)(F)F)cn2)C1)S(=O)(=O)c1cccc(C(F)(F)F)c1` [Compound 575], the IC50 on T-type calcium channel [1] is at least 10 µM; at T-type calcium channel [2] (setting [3]), 5.72 µM; on T-type calcium channel [2] (setting [4]), 4.45 µM; on CAv1.2 (setting [5]) it was 7.52 µM; on CAv1.2 (setting [6]) it was 5.36 µM; at Human Cav 2.2 channels (setting [7]) it was 3.21 µM. Besides, on Human Cav 2.2 channels (setting [8]), the IC50 turned out to be 0.28 µM. Moreover, at T-type calcium channel [2], the “CAv3.2 IC50 Ratio closed/inact.” value is reported as 1.3. Further, the “CAv1.2 IC50 Ratio closed/inact.” value at CAv1.2 came out at 1.4. On Human Cav 2.2 channels, the “CAv2.2 IC50 Ratio closed/inact.” value is 11.5.
